According to patent US4668689A, “Glutarimide derivatives for treating oestrogen-dependent tumors” (National Research Development Corporation, priority 1984, dated 1987):
Where two headings read alike, the source gives them in different places.

Experiments:
desmolase [1] = biological target: T1, desmolase (Bos taurus, UniProt P00189); experiment: Desmolase inhibition, (26-^14C)-cholesterol as substrate (7 micromolar), mitochondrial fraction of bovine adrenal cortex; format: biochemical
T1 construct: The mitochondrial fraction of bovine adrenal cortex provided the source of desmolase; from tissue; host or cells: bovine adrenal cortex, mitochondrial fraction
T1 sequence (P00189 40-520): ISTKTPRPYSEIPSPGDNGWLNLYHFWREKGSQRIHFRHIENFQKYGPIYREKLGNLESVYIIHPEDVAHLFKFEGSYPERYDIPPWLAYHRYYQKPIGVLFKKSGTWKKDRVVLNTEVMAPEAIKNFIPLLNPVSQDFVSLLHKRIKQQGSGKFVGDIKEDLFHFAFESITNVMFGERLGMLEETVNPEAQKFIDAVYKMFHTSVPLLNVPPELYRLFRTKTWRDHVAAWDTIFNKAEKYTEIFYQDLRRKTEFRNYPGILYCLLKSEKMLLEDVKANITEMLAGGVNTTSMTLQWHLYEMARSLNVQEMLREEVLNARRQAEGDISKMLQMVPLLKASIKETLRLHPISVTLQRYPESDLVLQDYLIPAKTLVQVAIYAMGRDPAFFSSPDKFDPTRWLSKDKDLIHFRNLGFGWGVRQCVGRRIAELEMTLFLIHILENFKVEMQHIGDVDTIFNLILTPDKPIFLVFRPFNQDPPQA

aromatase [2] = biological target: T2, aromatase (Homo sapiens, UniProt P11511); experiment: Aromatase inhibition, (1,2-^3H) androstene-3,17-dione as substrate (0.38 micromolar), microsomal fraction of human placental tissue; format: biochemical; settings: 0.38 micromolar (^3H) androstene-3,17-dione, 30° C., "None" = no inhibition; for IC50: read-out: IC50 Aromatase Androstenedione
T2 construct: Aromatase was obtained from the microsomal fraction of human placental tissue; from tissue; host or cells: human placenta, microsomal fraction
T2 sequence (P11511 1-503): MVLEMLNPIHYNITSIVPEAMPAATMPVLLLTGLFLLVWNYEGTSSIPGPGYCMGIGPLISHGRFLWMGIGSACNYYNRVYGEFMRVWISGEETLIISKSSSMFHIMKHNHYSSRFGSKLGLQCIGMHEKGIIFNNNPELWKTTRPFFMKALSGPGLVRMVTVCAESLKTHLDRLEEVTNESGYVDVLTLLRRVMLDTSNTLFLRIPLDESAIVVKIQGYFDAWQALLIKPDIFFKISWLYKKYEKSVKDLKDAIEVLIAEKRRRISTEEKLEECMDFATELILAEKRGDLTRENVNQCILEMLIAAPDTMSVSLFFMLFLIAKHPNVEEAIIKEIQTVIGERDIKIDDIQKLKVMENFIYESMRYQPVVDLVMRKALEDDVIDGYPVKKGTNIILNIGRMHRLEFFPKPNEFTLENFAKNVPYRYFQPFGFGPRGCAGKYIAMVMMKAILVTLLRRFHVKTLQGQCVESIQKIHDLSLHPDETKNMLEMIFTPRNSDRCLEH

aromatase [3] = biological target: T2, aromatase; experiment: Aromatase inhibition, (1,2-^3H) testosterone as substrate (1.5 micromolar), microsomal fraction of human placental tissue; format: biochemical; settings: for IC50: 1.5 micromolar (^3H) testosterone; for IC50 / IC50 Aromatase Testosterone: 30° C., "None" = no inhibition; for IC50 Aromatase Testosterone: […] (^3H) testosterone; for aromatase inhibition (in words): substrate not stated
desmolase [4] = settings: literature; cited from earlier work
[5] = CNS (sedative-hypnotic) activity; settings: in vivo
[6] = 7 micromolar (^14C) cholesterol, 30° C., "None" = no inhibition, read-out: IC50 Desmolase
[7] = 7 micromolar (^14C) cholesterol, 30° C., "None" = no inhibition

| SMILES | IC50 (aromatase [3]) [µM] | IC50 Desmolase (desmolase [1]; [7]) | also measured |
| --- | --- | --- | --- |
| CCCCCCCN1C(=O)CCC(CC)(c2ccncc2)C1=O (centres unmarked) [R1=C2 H5, R2=n-C7 H15] |  |  | IC50 (desmolase [1]; [6]): 210 µM |
| CCC1(c2ccncc2)CCC(=O)N(CCC(F)(F)C(F)(F)C(F)(F)C(F)(F)C(F)(F)C(F)(F)F)C1=O (centres unmarked) [R1=C2 H5, R2=(CH2)2 (CF2)5 CF3] | 34 |  | IC50 (aromatase [2]): 23 µM; IC50 (desmolase [1]): 145 µM |
| O=C1CCC(CCC(F)(F)C(F)(F)C(F)(F)C(F)(F)C(F)(F)C(F)(F)F)(c2ccncc2)C(=O)N1 (centres unmarked) [R1=(CH2)2 (CF2)5 CF3, R2=H, reference compound] |  |  | IC50 Aromatase Androstenedione (aromatase [2]): none; IC50 (desmolase [1]): 93 µM; IC50 Aromatase Testosterone (aromatase [3]): none |
| CCCCCCCCN1C(=O)CCC(CCCCCCCC)(c2ccncc2)C1=O (centres unmarked) [R1=n-C8 H17, R2=n-C8 H17, reference compound] |  |  | IC50 (desmolase [1]; [6]): 169 µM; IC50 Aromatase Testosterone (aromatase [3]): none |
| CCN1C(=O)CCC(CC)(c2ccncc2)C1=O (centres unmarked) [R1=C2 H5, R2=n-C2 H5, reference compound] |  |  | IC50 (desmolase [1]; [6]): 92 µM |
| CCCC1(c2ccncc2)CCC(=O)NC1=O (centres unmarked) [R1=n-C3 H7, R2=H] |  | none |  |
| CCCCCCCCCC1(c2ccncc2)CCC(=O)NC1=O (centres unmarked) [R1=n-C9 H19, R2=H] |  | none |  |
| CCC1(c2ccncc2)CCC(=O)NC1=O (centres unmarked) [Pyridoglutethimide, 3-ethyl-3-(4-pyridyl)piperidine-2,6-dione] |  | none | inhibition of desmolase (desmolase [4]): not desmolase; CNS (sedative-hypnotic) activity [5]: little or no CNS (sedative-hypnotic) activity |
| CCC1(c2ccc(N)cc2)CCC(=O)NC1=O (centres unmarked) [Aminoglutethimide] |  |  | inhibition of desmolase (desmolase [4]): also inhibits the enzyme desmolase |
| CCCCCCN1C(=O)CCC(CC)(c2ccncc2)C1=O (centres unmarked) [R1=C2 H5, R2=n-C6 H13] |  | none |  |
| O=C1CCC(CCC(F)(F)C(F)(F)C(F)(F)C(F)(F)F)(c2ccncc2)C(=O)N1 (centres unmarked) [R1=(CH2)2 (CF2)3 CF3, R2=H, reference compound] | 18 | none | IC50 (aromatase [2]): 22 µM |
| O=C1CCC(CCC(F)(F)C(F)(F)C(F)(F)C(F)(F)C(F)(F)C(F)(F)C(F)(F)C(F)(F)F)(c2ccncc2)C(=O)N1 (centres unmarked) [R1=(CH2)2 (CF2)7 CF3, R2=H, reference compound] |  |  | IC50 Aromatase Androstenedione (aromatase [2]): none; IC50 (desmolase [1]): 79 µM |
| CCCCN1C(=O)CCC(CC)(c2ccncc2)C1=O (centres unmarked) [R1=C2 H5, R2=n-C4 H9] |  | none |  |
| CCCCN1C(=O)CCC(CCCC)(c2ccncc2)C1=O (centres unmarked) [R1=n-C4 H9, R2=n-C4 H9] | 2.1 | none |  |
| CCCCCCCC1(c2ccncc2)CCC(=O)NC1=O (centres unmarked) [R1=n-C7 H15, R2=H] | 2 | none |  |
| CCC1(c2ccncc2)CCC(=O)N(CCC(F)(F)C(F)(F)C(F)(F)C(F)(F)F)C1=O (centres unmarked) [R1=C2 H5, R2=(CH2)2 (CF2)3 CF3] | 9 |  | IC50 (aromatase [2]): 9 µM; IC50 (desmolase [1]): 120 µM |
| CCC1(c2ccncc2)CCC(=O)N(CCC(F)(F)C(F)(F)C(F)(F)F)C1=O (centres unmarked) [R1=C2 H5, R2=(CH2)2 (CF2)2 CF3] | 3 |  | IC50 (aromatase [2]): 15 µM; IC50 (desmolase [1]): 240 µM |
| CCC1(c2ccncc2)CCC(=O)N(CC(F)(F)F)C1=O (centres unmarked) [R1=C2 H5, R2=CH2 CF3] | 14 |  | IC50 (aromatase [2]): 31 µM; IC50 (desmolase [1]; [6]): > 350 µM |
| CCCCCCCCC1(c2ccncc2)CCC(=O)NC1=O (centres unmarked) [R1=n-C8 H17, R2=H] |  | none |  |
| CCCCCCCCN1C(=O)CCC(CC)(c2ccncc2)C1=O (centres unmarked) [R1=C2 H5, R2=n-C8 H17] |  |  | IC50 (desmolase [1]; [6]): 110 µM |

| SMILES | IC50 (aromatase [3]) [µM] | IC50 Desmolase (desmolase [1]; [7]) | also measured |
| --- | --- | --- | --- |
| CCCCCC1(c2ccncc2)CCC(=O)NC1=O (centres unmarked) [R1=n-C5 H11, R2=H] | 3.2 | none |  |
| CC1(c2ccncc2)CCC(=O)NC1=O (centres unmarked) [R1=CH3, R2=H, reference compound] |  | none |  |
| CCCCCCC1(c2ccncc2)CCC(=O)NC1=O (centres unmarked) [R1=n-C6 H13, R2=H] | 3.8 | none |  |
| CCC1(c2ccncc2)CCC(=O)N(CC2CCCCC2)C1=O (centres unmarked) [R1=C2 H5, R2=[drawing 7]] | 9 | none |  |
| O=C1CCC(CCC(F)(F)C(F)(F)C(F)(F)F)(c2ccncc2)C(=O)N1 (centres unmarked) [R1=(CH2)2 (CF2)2 CF3, R2=H] | 18 | none | IC50 (aromatase [2]): 22 µM |
| CCCN1C(=O)CCC(CC)(c2ccncc2)C1=O (centres unmarked) [R1=C2 H5, R2=n-C3 H7] |  | none |  |
| CCCCCCCCC1(c2ccncc2)CCC(=O)N(CCCC)C1=O (centres unmarked) [R1=n-C8 H17, R2=n-C4 H9, reference compound] |  |  | IC50 (desmolase [1]; [6]): 106 µM; IC50 Aromatase Testosterone (aromatase [3]): none; aromatase inhibition (in words) (aromatase [3]): no aromatase inhibition |
| CCCCCCCCCCN1C(=O)CCC(CC)(c2ccncc2)C1=O (centres unmarked) [R1=C2 H5, R2=n-C10 H21] |  |  | IC50 (desmolase [1]; [6]): 340 µM |
| CCC1(c2ccncc2)CCC(=O)N(CC(F)(F)C(F)(F)C(F)(F)F)C1=O (centres unmarked) [R1=C2 H5, R2=CH2 (CF2)2 CF3] | 19 | none | IC50 (aromatase [2]): 106 µM |
| CCCCCCCCC1(c2ccncc2)CCC(=O)N(CCCCCC)C1=O (centres unmarked) [R1=n-C8 H17, R2=n-C6 H13, reference compound] | 10 |  | desmolase inhibition (in words) (desmolase [1]): significant desmolase inhibition; IC50 (desmolase [1]; [6]): 73 µM |
| CN1C(=O)CCC(C)(c2ccncc2)C1=O (centres unmarked) [R1=CH3, R2=CH3, reference compound] | > 90 | none |  |
| CCC1(c2ccncc2)CCC(=O)N(C)C1=O (centres unmarked) [R1=C2 H5, R2=CH3] |  | none |  |
| CCCCC1(c2ccncc2)CCC(=O)NC1=O (centres unmarked) [R1=n-C4 H9, R2=H] |  | none |  |
| O=C1CCC(CCC(F)(F)F)(c2ccncc2)C(=O)N1 (centres unmarked) [R1=(CH2)2 CF3, R2=H] | 2.9 | none | IC50 (aromatase [2]): 7 µM |
| CCCCCCC1(c2ccncc2)CCC(=O)N(CC)C1=O (centres unmarked) [R1=n-C6 H13, R2=n-C2 H5] | 2.1 | none |  |
| CCC1(c2ccncc2)CCC(=O)N(CCC(F)(F)F)C1=O (centres unmarked) [R1=C2 H5, R2=CH2 CH2 CF3] | 11 | none | IC50 (aromatase [2]): 42 µM |
| CCC1(c2ccncc2)CCC(=O)N(CCC(F)(F)C(F)(F)C(F)(F)C(F)(F)C(F)(F)C(F)(F)C(F)(F)C(F)(F)F)C1=O (centres unmarked) [R1=C2 H5, R2=(CH2)2 (CF2)7 CF3] | 15 |  | IC50 Aromatase Androstenedione (aromatase [2]): none; IC50 (desmolase [1]): 150 µM |
| CCCCCCCCCN1C(=O)CCC(CC)(c2ccncc2)C1=O (centres unmarked) [R1=C2 H5, R2=n-C9 H19] |  |  | IC50 (desmolase [1]; [6]): 175 µM; aromatase inhibition (in words) (aromatase [3]): dramatic increase |
| CCCCCN1C(=O)CCC(CC)(c2ccncc2)C1=O (centres unmarked) [R1=C2 H5, R2=n-C5 H11] |  |  | IC50 (desmolase [1]; [6]): 209 µM |
